Data on two compounds can be found in patent publication US11549123B2, “Plant EPSP synthases and methods of use” (PIONEER HI-BRED INTERNATIONAL, INC., priority 2015, dated 2023).

In experiment [1] the target is T1, Zea mays (maize) EPSPS, native, SEQ ID NO:1 (Table 10: SEQ ID NO:2) (Zea mays, UniProt O24566).
T1 sequence (O24566 with tags, fused parts or gaps): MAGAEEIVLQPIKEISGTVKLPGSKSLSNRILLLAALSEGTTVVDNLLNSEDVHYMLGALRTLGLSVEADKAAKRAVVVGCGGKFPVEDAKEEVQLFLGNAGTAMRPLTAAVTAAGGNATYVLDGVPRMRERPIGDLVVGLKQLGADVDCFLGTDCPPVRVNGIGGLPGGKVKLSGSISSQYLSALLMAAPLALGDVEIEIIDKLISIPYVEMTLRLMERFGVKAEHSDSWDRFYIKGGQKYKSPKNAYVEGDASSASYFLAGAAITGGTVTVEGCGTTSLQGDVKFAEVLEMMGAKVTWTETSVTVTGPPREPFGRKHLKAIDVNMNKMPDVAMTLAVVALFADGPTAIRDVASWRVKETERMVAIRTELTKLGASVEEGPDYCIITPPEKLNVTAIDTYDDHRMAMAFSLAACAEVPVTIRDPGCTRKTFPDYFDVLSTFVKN
As to the kind of experiment: EPSPS substrate saturation kinetics (PEP varied, glyphosate inhibition), native maize. Type of experiment: biochemical. An excerpt: The amino acid sequence of mature Zea mays EPSP synthase (EPSPS) was obtained from GenBank entry CAA44974.1 (NCBI GI No. 1524383; presented herein as SEQ ID NO:2). A nucleotide sequence was created to add an N-terminal methionine and to optimize codon usage for expression in E. coli. The synthetic gene was supplied by a commercial vendor. The gene was cloned into an expression vector that provides a T7 promoter driving expression of the protein. The vector was modified to change a 6×N-terminal histidine tag to a 10×tag. The resulting coding region of the vector yields an expressed protein with the amino acid sequence shown in Table 1 (represented by SEQ ID NO:1). The coding region is preceded by an N-terminal extension represented by SEQ ID NO:3.
Whether protein production was done in BL21(DE3) or with the Tuner AroA knockout, the vector was electroporated into cells and transformants were selected for growth on LB agar containing 100 ug carbennicillin/ml. Cells were grown in Magic Medium, in which induction occurs when the medium becomes depleted of glucose. After 4 hours of growth at 37° C., cells were transferred to 30° C. and grown another 16 hrs. Pelleted cells were lysed with BPER (Pierce) protein extraction reagent containing 0.2 mg/ml lysozyme, 1 mM dithiothreitol, protease inhibitor cocktail (Sigma, bacterial cocktail) and endonuclease. Insoluble cellular debris was removed by centrifugation. EPSPS protein was purified from the soluble protein solution by affinity chromatography on the nickel form of nitrilotriacetic acid (Ni-NTA) resin (Qiagen). Protein concentration was measured by absorbance at 280 nm using an extinction coefficient of 0.676 OD/mg/ml, provided by Vector NTI.
Shikimate-3-phosphate (S3P) was prepared from cultures of Klebsiella pneumonia aroA-(ATCC 25597). Cells from a 500 ml culture grown in 2×YT were used to inoculate 6 L of minimal medium augmented with 55 uM tyrosine, 60 uM phenylalanine, 25 uM tryptophan, 0.1 uM 4-aminobenzoate and 0.1 uM 4-hydroxybenzoate (Weiss et al., 1953. J Amer Chem Soc 75:5572-5576). Accumulation of S3P was monitored by anion exchange HPLC. After about 4 days shaking at 37 C, the concentration reached ˜1 mM. S3P was purified from the culture supernatant by anion exchange chromatography in ammonium bicarbonate at pH 7.3, with gradient elution up to 0.7 M. S3P was cleanly separated from phosphate, which eluted earlier.
EPSPS activity was determined by quantifying the phosphate generated from the EPSPS reaction. Release of inorganic phosphate was coupled to reaction with 2-amino-6-mercapto-7-methylpurine ribonucleoside, catalyzed by purine-nucleoside phosphorylase (M R Webb, Proc. Natl. Acad. Sci. 89:4884-4887, 1992). The absorbance change that occurs was monitored at 360 nm, where the extinction is 11,200 M^−1 cm^−1, with a Spectramax plate reader (Molecular Devices). To determine kinetic parameters, the varied substrate was present at seven concentrations (the eighth being the blank, containing no substrate) ranging from 4 to 400 uM and the unvaried substrate present at saturation. […] Reactions were monitored with a Spectramax plate reader. […]

For experiment [2], the target named is T2, Zea mays EPSPS variant P107L (Zea mays, UniProt O24566, P106L).
T2 sequence (O24566 with tags, fused parts or gaps P106L): T1 sequence (O24566 with tags, fused parts or gaps) with P107L
As to the kind of experiment: EPSPS substrate saturation kinetics, P107L.
Description: EPSPS activity was determined by quantifying the phosphate generated from the EPSPS reaction. Release of inorganic phosphate was coupled to reaction with 2-amino-6-mercapto-7-methylpurine ribonucleoside, catalyzed by purine-nucleoside phosphorylase (M R Webb, Proc. Natl. Acad. Sci. 89:4884-4887, 1992). The absorbance change that occurs was monitored at 360 nm, where the extinction is 11,200 M^−1 cm^−1, with a Spectramax plate reader (Molecular Devices). To determine kinetic parameters, the varied substrate was present at seven concentrations (the eighth being the blank, containing no substrate) ranging from 4 to 400 uM and the unvaried substrate present at saturation. Six microliters of 50-fold concentrated stock solutions of the varied substrate were placed in the wells of the 96-well assay plate and reactions were started with the addition of a mixture containing 25 mM Hepes, pH 7, 100 mM KCl, 0.3 mM 2-amino-6-mercapto-7-methylpurine ribonucleosde, 1 uM (1 unit/ml) purine-nucleoside phosphorylase (Sigma N8264) and 200 uM of the non-varied substrate. Reactions were monitored with a Spectramax plate reader. The Michaelis-Menten kinetics protocol of the Spectramax software was customized for the substrate concentrations used. The software returns values of KM and Vmax using the Lineweaver-Burke transformation of the Michaelis-Menten equation. To determine kcat, Vmax (uM/min) was divided by the enzyme concentration (uM). […] KI was then calculated from the following form of the Michaelis-Menten equation for competitive inhibition: KI=KM[I]/(KM app−KM) KM approximates the dissociation constant of the enzyme-substrate complex while kcat is the rate of conversion of substrate to product when the substrate concentration is saturating. kcat/KM is a widely accepted parameter for catalytic efficiency when substrate concentration is low (˜KM). […] The parameter kcat/KM×KI is used to quantify both catalytic efficiency and insensitivity and thus the overall fitness of the enzyme.

Setting [3] is: PEP as substrate, glyphosate as inhibitor.

Residue numbers refer to the chain shown, from its start. Where “and” joins values, the source holds several entries; their conditions need not be identical. Equal values may be shown once.

For orientation: Km means the substrate concentration at which the rate is half of its maximum. In the case of `C=C(OP(=O)(O)O)C(=O)O` [PEP, phosphoenolpyruvate], the kcat in experiment [1] (PEP varied, S3P saturating, pH 7) was determined as 1464 min⁻¹; in experiment [1] (Table 3, unit not given), 1464; in experiment [2] (PEP varied), 24.2 s⁻¹. For the same compound, the Michaelis constant (Km) in experiment [1] (read-out: KM (PEP), Table 3, unit inferred) amounted to 15.7 µM. Besides, in experiment [2] (PEP), the kcat/KM is 22.1 min^−1uM^−1.

For orientation: Ki means the equilibrium dissociation constant of an inhibitor or competing ligand from its target. Lower therefore signals a stronger hold on the target. Regarding `O=C(O)CNCP(=O)(O)O` [glyphosate, N-phosphonomethylglycine], the Ki came out at 0.13 µM in experiment [1]; 3.6 µM in experiment [2] (KI (glyphosate), competitive with PEP); 3.05 µM in experiment [2] (Ki, substrate saturation, Zm-P107L). The “(kcat/KM)*KI” value was 11.8 and 12 in experiment [1] (setting [3]); 79 in experiment [2] (setting [3]); 70 in experiment [2] (substrate saturation, Zm-P107L).
